# Measured values published in patent publication US20220218852A1, “NOVEL RADIOLABELLED CXCR4-TARGETING COMPOUNDS FOR DIAGNOSIS AND THERAPY” (PROVINCIAL HEALTH SERVICES AUTHORITY, priority 2019, published 2022).
# Like-named read-outs stand apart in the source and are kept apart here. Positions of bridges follow the written chain, without caps; N, C: chain ends. Non-standard residues stand in square brackets, D forms with d. Residues, ends and D or L forms follow the SMILES beside them. Groups on a side chain read outwards from the residue. *: point of attachment. DOTA = O=C(O)CN1CCN(CC(=O)O)CCN(CC(=O)*)CCN(CC(=O)O)CC1; 2Nal = N[C@@H](Cc1ccc2ccccc2c1)C(=O)O; Lys(iPr) = CC(C)NCCCC[C@H](N)C(=O)O
# Experiments:
# [1] = test system: Z138 mantle cell lymphoma xenografts; assay: Biodistribution in Z138 tumor-bearing mice; format: in vivo
# Method: (§1) For Daudi, Z138, GRANTA519 and Jeko1 xenografts, male NOD.Cg-Rag1^tm1MomII2rg^tm1Wjl/SzJ (NRG) mice were subcutaneously inoculated on the left flank with 5×10^6 cells (100 μL; 1:1 ratio of PBS/Matrigel) and tumors were grown to a size of 200-500 mm^3. For PC-3 xenografts, male NOD.Cg-Rag1^tm1MomII2rg^tm1Wjl/SzJ (NRG) mice were subcutaneously inoculated on the left flank with 5×10^6 PC-3 cells (100 μL; 1:1 ratio of PBS/Matrigel) and tumors were grown to a size of 200-400 mm^3.
# (§2) The mice were euthanized via CO2 inhalation while anesthetized with isoflurane. Tissues were harvested, washed in PBS, blotted dry, weighed, and measured on a Hidex AMG Automatic Gamma Counter.
# [2] = Biodistribution in Z138 tumor-bearing mice; format: in vivo; details: male, NOD.Cg-Rag1^tm1MomII2rg^tm1Wjl/SzJ (NRG), mouse, iv, total radioactivity
# Method: as §1, §2
# [3] = blood, read-out: Biodistribution Blood
# [4] = bone, read-out: Biodistribution Bone
# [5] = brain, read-out: Biodistribution Brain
# [6] = fat, read-out: Biodistribution Fat
# [7] = intestine, read-out: Biodistribution Intestine
smiles,measurement,setting,value
"CC(C)NCCCC[C@@H]1NC(=O)[C@H](Cc2ccc(O)cc2)NC(=O)[C@H](Cc2ccccc2)NC(=O)CC[C@H](C(=O)N[C@@H](CCCCNC(C)C)C(=O)N[C@@H](CCCCNC(=O)[C@H](CCC(=O)O)NC(=O)[C@H](CCC(=O)O)NC(=O)[C@H](CCC(=O)O)NC(=O)CN2CCN(CC(=O)O)CCN(CC(=O)O)CCN(CC(=O)O)CC2)C(N)=O)NC(=O)CNC(=O)[C@H](Cc2ccc3ccccc3c2)NC(=O)[C@@H](CCCNC(=N)N)NC1=O [[^177Lu]Lu-BL02, metal not drawn] (FY[Lys(iPr)][dR][2Nal]G[dE][Lys(iPr)]K([Glu-Glu-Glu-DOTA])-NH2; lactam N-7)",Ratio Tumour:Blood,[1]; 1 h,38.98
same,Ratio Tumour:Bone,[1]; 1 h,74.82
same,Ratio Tumour:Liver,[1]; 1 h,18.53
same,Ratio Tumour:Lung,[1]; 1 h,21.08
same,Ratio Tumour:Muscle,[1]; 1 h,166.59
same,Ratio Tumour:Spleen,[1]; 1 h,33.05
same,Ratio Tumour:Blood,[1]; 1 h blocked,2.74
same,Ratio Tumour:Bone,[1]; 1 h blocked,9.53
same,Ratio Tumour:Liver,[1]; 1 h blocked,3.84
same,Ratio Tumour:Lung,[1]; 1 h blocked,2.75
same,Ratio Tumour:Muscle,[1]; 1 h blocked,13.22
same,Ratio Tumour:Spleen,[1]; 1 h blocked,6.87
same,Ratio Tumour:Blood,[1]; 4 h,627.62
same,Ratio Tumour:Bone,[1]; 4 h,145.11
same,Ratio Tumour:Liver,[1]; 4 h,16.93
same,Ratio Tumour:Lung,[1]; 4 h,60.62
same,Ratio Tumour:Muscle,[1]; 4 h,503.09
same,Ratio Tumour:Spleen,[1]; 4 h,49.43
same,Ratio Tumour:Blood,[1]; 24 h,873.49
same,Ratio Tumour:Bone,[1]; 24 h,109.48
same,Ratio Tumour:Liver,[1]; 24 h,12.51
same,Ratio Tumour:Lung,[1]; 24 h,52.72
same,Ratio Tumour:Muscle,[1]; 24 h,463.22
same,Ratio Tumour:Spleen,[1]; 24 h,31.90
same,Ratio Tumour:Blood,[1]; 72 h,613.24
same,Ratio Tumour:Bone,[1]; 72 h,68.39
same,Ratio Tumour:Liver,[1]; 72 h,8.32
same,Ratio Tumour:Lung,[1]; 72 h,21.59
same,Ratio Tumour:Muscle,[1]; 72 h,358.55
same,Ratio Tumour:Spleen,[1]; 72 h,13.86
same,tissue uptake at 1 h,"[2]; blood, 1 h, read-out: Biodistribution Blood",0.44 %ID/g
same,tissue uptake at 4 h,[2]; [3],0.03 %ID/g
same,tissue uptake at 24 h,[2]; [3],0.01 %ID/g
same,tissue uptake at 72 h,[2]; [3],0.007 %ID/g
same,tissue uptake at 1 h,"[2]; blood, with LY2510924 7.5 μg i.p. 15 min before radiotracer, 1 h blocked, read-out: Biodistribution Blood",2.06 %ID/g
same,tissue uptake at 1 h,"[2]; bone, 1 h, read-out: Biodistribution Bone",0.25 %ID/g
same,tissue uptake at 4 h,[2]; [4],0.11 %ID/g
same,tissue uptake at 24 h,[2]; [4],0.085 %ID/g
same,tissue uptake at 72 h,[2]; [4],0.053 %ID/g
same,tissue uptake at 1 h,"[2]; bone, 1 h blocked, read-out: Biodistribution Bone",0.49 %ID/g
same,tissue uptake at 1 h,"[2]; brain, 1 h, read-out: Biodistribution Brain",0.02 %ID/g
same,tissue uptake at 1 h,"[2]; brain, 1 h blocked, read-out: Biodistribution Brain",0.04 %ID/g
same,tissue uptake at 4 h,[2]; [5],0.01 %ID/g
same,tissue uptake at 24 h,[2]; [5],0.003 %ID/g
same,tissue uptake at 72 h,[2]; [5],0.001 %ID/g
same,tissue uptake at 1 h,"[2]; fat, 1 h, read-out: Biodistribution Fat",0.07 %ID/g
same,tissue uptake at 4 h,[2]; [6],0.03 %ID/g
same,tissue uptake at 24 h,[2]; [6],0.011 %ID/g
same,tissue uptake at 72 h,[2]; [6],0.008 %ID/g
same,tissue uptake at 1 h,"[2]; fat, with LY2510924 7.5 μg i.p. 15 min before radiotracer, 1 h blocked, read-out: Biodistribution Fat",0.19 %ID/g
same,tissue uptake at 1 h,"[2]; intestine, 1 h, read-out: Biodistribution Intestine",0.27 %ID/g
same,tissue uptake at 1 h,"[2]; intestine, 1 h blocked, read-out: Biodistribution Intestine",0.75 %ID/g
same,tissue uptake at 4 h,[2]; [7],0.09 %ID/g
same,tissue uptake at 24 h,[2]; [7],0.126 %ID/g
same,tissue uptake at 72 h,[2]; [7],0.023 %ID/g
